The values below come from US6620828B2, “Thiazole compounds and pharmaceutical compositions for inhibiting protein kinases and methods for their use” (Agouron Pharmaceuticals, Inc., priority 1999, dated 2003).

The assay concerns human umbilical vein endothelial cells (HUVEC). As to the kind of experiment: HUVEC proliferation assay. The class given is cell-based. Particulars: for inhibition at 0.05 µM / inhibition at 0.15 µM / inhibition at 0.001 µM / inhibition at 0.01 µM: Homo sapiens, HUVEC; for inhibition at 0.05 µM: 50 nM; for inhibition at 0.15 µM / % inhibition @ 150 nM: Table I screening results, 150 nM; for inhibition at 0.001 µM: 1 nM; for inhibition at 0.01 µM: 10 nM. The procedure:
HUVEC Proliferation Assay
This assay determines the ability of a test compound to inhibit the growth factor-stimulated proliferation of human umbilical vein endothelial cells (“HUVEC”). HUVEC cells (passage 3-4, Clonetics, Corp.) were thawed into EGM2 culture medium (Clonetics Corp) in T75 flasks. Fresh EGM2 medium was added to the flasks 24 hours later. Four or five days later, cells were exposed to another culture medium (F12K medium supplemented with 10% fetal bovine serum (FBS), 60 μg/ml endothelial cell growth supplement (ECGS), and 0.1 mg/ml heparin). Exponentially-growing HUVEC cells were used in experiments thereafter. Ten to twelve thousand HUVEC cells were plated in 96-well dishes in 100 μl of rich, culture medium (described above). The cells were allowed to attach for 24 hours in this medium. The medium was then removed by aspiration and 105 μl of starvation media (F12K+1% FBS) was added to each well. After 24 hours, 15 μl of test agent dissolved in 1% DMSO in starvation medium or this vehicle alone was added into each treatment well; the final DMSO concentration was 0.1%. One hour later, 30 μl of VEGF (30 ng/ml) in starvation media was added to all wells except those containing untreated controls; the final VEGF concentration was 6 ng/ml. Cellular proliferation was quantified 72 hours later by MTT dye reduction, at which time cells were exposed for 4 hours MTT (Promega Corp.). Dye reduction was stopped by addition of a stop solution (Promega Corp.) and absorbance at 595 λ was determined on a 96-well spectrophotometer plate reader.
IC50 values were calculated by curve-fitting the response of A^595 to various concentrations of the test agent; typically, seven concentrations separated by 0.5 log were employed, with triplicate wells at each concentration. For screening compound library plates, one or two concentrations (one well per concentration) were employed, and the % inhibition was calculated by the following formula:
% inhibition=(control−test) divided by (control−starvation) […]
control=A^595 when VEGF is present without test agent test=A^595 when VEGF is present with test agent starvation=A^595 when VEGF and test agent are both absent.

Where [1] appears, read: Inhibition of HUVEC Proliferation, crude combinatorial urea library, read-out: Inhibition @ 50 nM.
The mark [2] stands for this setting: crude combinatorial amide library.
The mark [3] stands for this setting: table following Table II (untitled), crude combinatorial library.
[4] abbreviates: table following Table II (untitled), crude combinatorial library, read-out: % inhibition @ 10 nM.
Setting [5] is: crude combinatorial urea library, read-out: Inhibition of HUVEC Proliferation % inhibition @ 10 nM.
Where [6] appears, read: crude combinatorial urea library, read-out: Inhibition of HUVEC Proliferation % inhibition @ 50 nM.
Where [7] appears, read: Table II screening results, crude combinatorial amide library.
Where [8] appears, read: Table II screening results, crude combinatorial amide library, read-out: % inhibition @ 10 nM.
[9] abbreviates: Inhibition of HUVEC Proliferation, crude combinatorial urea library, read-out: % inhibition @ 50 nM.

Structures are written as SMILES. Like-named read-outs stand apart in the source and are kept apart here.

For `COc1cccc(C(=O)Nc2cc(-c3noc(-c4sc(NC(=O)NCC(C)O)nc4N)n3)c(F)cc2F)c1` (stereo not shown), the inhibition at 0.05 µM under setting [1] amounted to 78%.
As to `COc1cccc(C(=O)Nc2cc(-c3noc(-c4sc(NC(=O)NCC(C)(O)CO)nc4N)n3)c(F)cc2F)c1` (stereo not shown), under setting [1], the inhibition at 0.05 µM was determined as 45%.
Regarding `COc1cccc(C(=O)Nc2cc(-c3noc(-c4sc(NC(=O)NCC(C)(C)CO)nc4N)n3)c(F)cc2F)c1`, the inhibition at 0.05 µM under setting [1] amounted to 104%.
On to `COc1cc(Nc2nc(N)c(-c3nc(-c4cccc(NC(=O)Cc5ccccc5Cl)c4)cs3)s2)cc(OC)c1OC`, for which the inhibition at 0.15 µM under setting [2] is 34%.
In the case of `COc1cc(Nc2nc(N)c(-c3nc(-c4cc(NC(=O)CSC(=S)N(C)C)ccc4C)no3)s2)cc(OC)c1OC`, the inhibition at 0.001 µM under setting [3] amounted to 6%. In addition, under setting [4], the inhibition at 0.01 µM is -7%.
With `COc1cccc(C(=O)Nc2cc(-c3noc(-c4sc(NC(=O)NCCN5CCOCC5)nc4N)n3)c(F)cc2F)c1` [drawing 788], the inhibition at 0.05 µM under setting [1] stood at 106%.
Turning to `COc1cccc(C(=O)Nc2cc(-c3noc(-c4sc(NC(=O)NCC(=N)N)nc4N)n3)c(F)cc2F)c1`, the inhibition at 0.05 µM under setting [1] worked out at 65%.
Turning to `COc1cccc(C(=O)Nc2cccc(-c3csc(-c4sc(Nc5cc(OC)c(OC)c(OC)c5)nc4N)n3)c2)c1` [drawing 999], under setting [2], the inhibition at 0.15 µM turned out to be 108%.
Turning to `COc1cccc(C(=O)Nc2cccc(-c3csc(-c4sc(NC(=O)NCC(C)(C)N)nc4N)n3)c2)c1`, under setting [5], the inhibition at 0.01 µM is 14%. Under setting [6], the inhibition at 0.05 µM was determined as 3%.
For the compound `COc1cc(Nc2nc(N)c(-c3nc(-c4cc(NC(=O)Cc5cc(F)cc(F)c5)ccc4C)no3)s2)cc(OC)c1OC`, the inhibition at 0.001 µM under setting [3] came to 4%. For the same compound, under setting [4], the inhibition at 0.01 µM stood at 67%.
Consider `CNC(=O)CNC(=O)Nc1nc(N)c(-c2nc(-c3cc(NC(=O)c4cccc(OC)c4)c(F)cc3F)no2)s1`, for which the inhibition at 0.05 µM under setting [1] turned out to be 51%.
With `COc1cc(Nc2nc(N)c(-c3nc(-c4cccc(NC(=O)C5=C(C)c6ccccc6C5)c4)cs3)s2)cc(OC)c1OC`, the inhibition at 0.15 µM under setting [2] is 29%.
The same measure, in the same setting: next, `COc1cc(Nc2nc(N)c(-c3nc(-c4cccc(NC(=O)c5ccc(C)cc5)c4)cs3)s2)cc(OC)c1OC`: 66%.
On to `CCN(CC)CCNC(=O)Nc1nc(N)c(-c2nc(-c3cc(NC(=O)c4cccc(OC)c4)c(F)cc3F)no2)s1`, for which, under setting [1], the inhibition at 0.05 µM turned out to be 82%.
With `CCc1ccccc1C(=O)Nc1cccc(-c2csc(-c3sc(NC(=O)NC)nc3N)n2)c1`, the inhibition at 0.001 µM under setting [7] amounted to 0%. Moreover, under setting [8], the inhibition at 0.01 µM came out at 106%.
With `COc1cccc(C(=O)Nc2cc(-c3csc(-c4sc(NC(=O)NC5CCN(Cc6ccccc6)CC5)nc4N)n3)c(F)cc2F)c1`, the inhibition at 0.05 µM under setting [9] worked out at 66%.
`COc1cc(Nc2nc(N)c(-c3nc(-c4cccc(NC(=O)c5ccc6[nH]ccc6c5)c4)cs3)s2)cc(OC)c1OC`: the inhibition at 0.15 µM under setting [2] turned out to be 15%.
`CCCN(CCC)CC(=O)Nc1cccc(-c2csc(-c3sc(NC(=O)NC)nc3N)n2)c1`: the inhibition at 0.001 µM under setting [7] came out at 10%. Besides, the inhibition at 0.01 µM under setting [8] stood at 0%.
`COc1cccc(C(=O)Nc2cc(-c3csc(-c4sc(NC(=O)NCCCC(=O)O)nc4N)n3)c(F)cc2F)c1`: the inhibition at 0.05 µM under setting [9] turned out to be 40%.
For the compound `COc1ccc(CC(=O)Nc2cccc(-c3csc(-c4sc(Nc5cc(OC)c(OC)c(OC)c5)nc4N)n3)c2)cc1`, the “% inhibition @ 150 nM” value under setting [2] came out at 0%.
Consider `COc1cc(Nc2nc(N)c(-c3nc(-c4cc(NC(=O)C5CC(=O)OC5(C)C)ccc4C)no3)s2)cc(OC)c1OC` (stereo not shown), for which the inhibition at 0.001 µM under setting [3] is -9%. In addition, the inhibition at 0.01 µM under setting [4] was found to be 12%.
Regarding `COc1cc(Nc2nc(N)c(-c3nc(-c4cc(NC(=O)C(=O)C5=CCCCC5)ccc4C)no3)s2)cc(OC)c1OC`, under setting [3], the inhibition at 0.001 µM was -36%. The inhibition at 0.01 µM under setting [4] was 11%.
With `COc1cc(Nc2nc(N)c(-c3nc(-c4cccc(NC(=O)Cc5cccc6ccccc56)c4)cs3)s2)cc(OC)c1OC`, the inhibition at 0.15 µM under setting [2] came to 6%.
On to `CCN(CC)CCCC(C)NC(=O)Nc1nc(N)c(-c2nc(-c3cccc(NC(=O)c4cccc(OC)c4)c3)cs2)s1` (stereo not shown), for which the inhibition at 0.01 µM under setting [5] is 7%. The inhibition at 0.05 µM under setting [6] is 68%.
`COc1cccc(C(=O)Nc2cccc(-c3csc(-c4sc(NC(=O)NCc5ccc(S(N)(=O)=O)cc5)nc4N)n3)c2)c1`: under setting [5], the inhibition at 0.01 µM came to 26%. Further, the inhibition at 0.05 µM under setting [6] turned out to be 36%.
For the compound `COc1cc(Nc2nc(N)c(-c3nc(-c4cccc(NC(=O)Cc5cccnc5)c4)cs3)s2)cc(OC)c1OC`, the inhibition at 0.15 µM under setting [2] was -20%.
In the case of `COc1cccc(C(=O)Nc2cc(-c3noc(-c4sc(NC(=O)NC(C)CN(C)C)nc4N)n3)c(F)cc2F)c1` (stereo not shown), under setting [1], the inhibition at 0.05 µM turned out to be 27%.
As for `COc1cc(Nc2nc(N)c(-c3nc(-c4cccc(NC(=O)c5cccc6ccccc56)c4)cs3)s2)cc(OC)c1OC`, the inhibition at 0.15 µM under setting [2] was found to be 22%.
With `CNC(=O)Nc1nc(N)c(-c2nc(-c3cccc(NC(=O)c4ccc(=O)oc4)c3)cs2)s1`, under setting [7], the inhibition at 0.001 µM was -4%. Further, the inhibition at 0.01 µM under setting [8] came out at 30%.
Consider `CNC(=O)Nc1nc(N)c(-c2nc(-c3cccc(NC(=O)C4C(C=C(C)C)C4(C)C)c3)cs2)s1` (stereo not shown), for which the inhibition at 0.001 µM under setting [7] was -17%. Further, under setting [8], the inhibition at 0.01 µM was determined as 12%.
For the compound `COc1cc(Nc2nc(N)c(-c3nc(-c4cccc(NC(=O)C(=O)c5c[nH]c6ccccc56)c4)cs3)s2)cc(OC)c1OC`, the “% inhibition @ 150 nM” value under setting [2] is on record as 0%.
Consider `COc1cc(Nc2nc(N)c(-c3nc(-c4cccc(NC(=O)c5ccncc5)c4)cs3)s2)cc(OC)c1OC`, for which, under setting [2], the inhibition at 0.15 µM was 1%.
Consider `COc1cccc(C(=O)Nc2cccc(-c3csc(-c4sc(NC(=O)NCC(C)(C)CO)nc4N)n3)c2)c1`, for which, under setting [5], the inhibition at 0.01 µM came out at 7%. Also, the inhibition at 0.05 µM under setting [6] came to 88%.
Take `CNC(=O)Nc1nc(N)c(-c2nc(-c3cccc(NC(=O)C(=O)Cc4ccccc4)c3)cs2)s1`: under setting [7], the inhibition at 0.001 µM is 8%. Further, the inhibition at 0.01 µM under setting [8] stood at 25%.
As to `COc1cccc(C(=O)Nc2cc(-c3csc(-c4sc(NC(=O)NCCO)nc4N)n3)c(F)cc2F)c1`, the inhibition at 0.05 µM under setting [9] was 110%.
Consider `COc1cccc(C(=O)Nc2cc(-c3noc(-c4sc(NC(=O)NCCO)nc4N)n3)c(F)cc2F)c1` [drawing 806], for which the inhibition at 0.05 µM under setting [1] worked out at 19%.
Regarding `CCn1nc(C)cc1C(=O)Nc1ccc(C)c(-c2noc(-c3sc(Nc4cc(OC)c(OC)c(OC)c4)nc3N)n2)c1`, the inhibition at 0.001 µM under setting [3] is -4%. In addition, the inhibition at 0.01 µM under setting [4] amounted to 44%.
Take `CNC(=O)Nc1nc(N)c(-c2nc(-c3cccc(NC(=O)c4ccccc4)c3)cs2)s1`: the inhibition at 0.001 µM under setting [7] is -8%. Moreover, the inhibition at 0.01 µM under setting [8] is -40%.
Regarding `COc1cc(Nc2nc(N)c(-c3nc(-c4cccc(NC(=O)c5cc6ccccc6[nH]5)c4)cs3)s2)cc(OC)c1OC`, the inhibition at 0.15 µM under setting [2] was 4%.
Turning to `COc1cc(Nc2nc(N)c(-c3nc(-c4cccc(NC(=O)C(C)c5ccccc5)c4)cs3)s2)cc(OC)c1OC` (stereo not shown), the inhibition at 0.15 µM under setting [2] worked out at 3%.
With `COc1cc(Nc2nc(N)c(-c3nc(-c4cc(NC(=O)C(O)CC(C)C)ccc4C)no3)s2)cc(OC)c1OC` (stereo not shown), the inhibition at 0.001 µM under setting [3] was 5%. Further, under setting [4], the inhibition at 0.01 µM is 69%.
Take `COc1cc(Nc2nc(N)c(-c3nc(-c4cccc(NC(=O)c5ccc(C(C)(C)C)cc5)c4)cs3)s2)cc(OC)c1OC`: the inhibition at 0.15 µM under setting [2] came to 26%.
As to `CNC(=O)Nc1nc(N)c(-c2nc(-c3cccc(NC(=O)Cc4cc(F)cc(F)c4)c3)cs2)s1`, under setting [7], the inhibition at 0.001 µM was -5%. For the same compound, the inhibition at 0.01 µM under setting [8] was -10%.
`CNC(=O)Nc1nc(N)c(-c2nc(-c3cccc(NC(=O)c4cc(C)n(O)n4)c3)cs2)s1`: under setting [7], the inhibition at 0.001 µM was -2%. Also, the inhibition at 0.01 µM under setting [8] was determined as 13%.
On to `COc1cc(Nc2nc(N)c(-c3nc(-c4cc(NC(=O)c5cc(C)nn5C)ccc4C)no3)s2)cc(OC)c1OC`, for which the inhibition at 0.001 µM under setting [3] was -23%. In addition, under setting [4], the inhibition at 0.01 µM is 109%.
For `COc1cccc(C(=O)Nc2cc(-c3csc(-c4sc(NC(=O)NCCCN5CCCC5=O)nc4N)n3)c(F)cc2F)c1` [drawing 675], under setting [9], the inhibition at 0.05 µM stood at 105%.
With `COc1cccc(C(=O)Nc2cc(-c3noc(-c4sc(NC(=O)NC5CC(C)(C)NC(C)(C)C5)nc4N)n3)c(F)cc2F)c1`, the inhibition at 0.05 µM under setting [1] stood at 99%.
Consider `COc1cc(Nc2nc(N)c(-c3nc(-c4cccc(NC(=O)c5cc6cc(Cl)ccc6[nH]5)c4)cs3)s2)cc(OC)c1OC`, for which the inhibition at 0.15 µM under setting [2] was 0%.
